The results in this text go back to patent EP4813463A2, “TYK2 INHIBITORS AND COMPOSITIONS AND METHODS THEREOF” (Lynk Pharmaceuticals Co. Ltd., priority 2023, dated 2024).

The test system of assay [1] is Ba/F3-FL-TYK2-P760L cells. Nature of the assay: Anti-proliferative assay in engineered Ba/F3 cells (Cell-Titer Glo, 72 h). To be noted: Mus musculus, BaF3, 72 h, 72 h compound treatment, concentration that causes 50% growth inhibition, read-out: Baf3-FL-T2P760L. In kind it is cell-based. The method, boiled down: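 IC50 from luminescent ATP viability after 72 h compound exposure (37 °C, 5% CO2), % inhibition normalised to DMSO-treated cells minus medium blank. IL-3-free Ba/F3-FL-TYK2-P760L (Tel-JAK fusion) cells in 10% FBS RPMI-1640 received 9 three-fold doses, top 20 µM, 0.1% DMSO.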

The next assay deals with T1, JAK1-JH2 domain (Homo sapiens, UniProt P23458).
T1 construct: JAK1-JH2 domain or TYK2-JH2 domain enzyme in assay buffer
The assay can be described thus: Binding activity test for JH2 domain of JAK1 (Tb-antibody/tracer FRET). To be noted: JH2 domain enzyme; 60 min at 25°C, then 4°C overnight; read-out: JAK1 JH2 Binding IC50. The method, boiled down: (§1)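 IC50 values (nM) come from TR-FRET readings taken after a 25°C incubation followed by overnight at 4°C. Each well held JH2 domain protein, Tb-antibody, tracer and test compound titrated in 11 threefold steps, with DMSO high and low controls.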

The target in a further assay is T2, TYK2-JH2 domain (Homo sapiens, UniProt P29597).
T2 construct: JAK1-JH2 domain or TYK2-JH2 domain enzyme in assay buffer
Nature of the assay: Binding activity test for JH2 domain of TYK2 (Tb-antibody/tracer FRET). Conditions: for IC50: JH2 domain enzyme, 60 min at 25°C, then 4°C overnight, read-out: TYK2 JH2 Binding IC50; for JAK1/TYK2 selectivity: ratio of JAK1 JH2 to TYK2 JH2 binding IC50. The method, boiled down: as §1

T2 sequence (P29597 589-875 limits assumed): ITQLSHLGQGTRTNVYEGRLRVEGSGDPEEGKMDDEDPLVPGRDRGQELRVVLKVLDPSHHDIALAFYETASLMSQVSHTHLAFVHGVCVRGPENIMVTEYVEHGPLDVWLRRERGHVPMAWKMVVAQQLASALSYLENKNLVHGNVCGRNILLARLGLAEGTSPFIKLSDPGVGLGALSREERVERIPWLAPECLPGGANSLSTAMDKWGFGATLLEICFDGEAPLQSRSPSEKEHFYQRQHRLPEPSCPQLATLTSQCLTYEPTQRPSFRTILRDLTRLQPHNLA
T1 sequence (P23458 583-855 limits assumed): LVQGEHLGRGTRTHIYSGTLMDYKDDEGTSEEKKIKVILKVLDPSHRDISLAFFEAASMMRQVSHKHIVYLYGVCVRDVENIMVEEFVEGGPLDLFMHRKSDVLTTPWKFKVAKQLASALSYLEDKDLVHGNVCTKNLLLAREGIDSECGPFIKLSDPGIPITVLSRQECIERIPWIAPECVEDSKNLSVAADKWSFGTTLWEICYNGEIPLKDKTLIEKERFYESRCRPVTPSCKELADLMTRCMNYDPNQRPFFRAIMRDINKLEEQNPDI

`COc1c(Nc2cc(NC(=O)C3CC3)ncc2C(C)(F)F)cccc1-c1cnn(C)n1` [Example 168, N-(5-(1,1-difluoroethyl)-4-((2-methoxy-3-(2-methyl-2H-1,2,3-triazol-4-yl)phenyl)amino)pyridin-2-yl)cyclopropanecarboxamide]: the IC50 in assay [1] amounted to 19.1 nM; on JAK1-JH2 domain, 1.03 nM; at TYK2-JH2 domain it was 0.27 nM. For the same compound, the JAK1/TYK2 selectivity on TYK2-JH2 domain was 3.81.
On to `COC(=O)c1cnc(Nc2ccc(F)cn2)cc1Nc1nn(C)c2ccc([C@H](OC)C(F)(F)F)c(OC)c12` [Example 169, Methyl (S)-6-((5-fluoropyridin-2-yl)amino)-4-((4-methoxy-1-methyl-5-(2,2,2-trifluoro-1-methoxyethyl)-1H-indazol-3-yl)amino)nicotinate], for which the IC50 in assay [1] was 8.33 nM; on JAK1-JH2 domain, greater than 298 nM; at TYK2-JH2 domain it was 0.19 nM. On TYK2-JH2 domain, the JAK1/TYK2 selectivity is given as greater than 1571.
For `[2H]C([2H])([2H])NC(=O)c1cnc(Nc2ccc(F)cn2)cc1Nc1nn(C)c2ccc([C@H](OC)C(F)(F)F)c(OC)c12` [Example 171, (S)-6-((5-fluoropyridin-2-yl)amino)-4-((4-methoxy-1-methyl-5-(2,2,2-trifluoro-1-methoxyethyl)-1H-indazol-3-yl)amino)-N-(methyl-d3)nicotinamide], the IC50 in assay [1] stood at 1.03 nM; on JAK1-JH2 domain, 17 nM; on TYK2-JH2 domain, 0.171 nM. Also, on TYK2-JH2 domain, the JAK1/TYK2 selectivity is recorded as 99.17.
As for `[2H]C([2H])([2H])OCc1ccc2c(c(Nc3cc(NC(=O)C4CC4)ncc3C(F)(F)CC)nn2C)c1OC` [Example 172, N-(5-(1,1-difluoropropyl)-4-((4-methoxy-5-((methoxy-d3)methyl)-1-methyl-1H-indazol-3-yl)amino)pyridin-2-yl)cyclopropanecarboxamide], the IC50 in assay [1] turned out to be 21.9 nM; at JAK1-JH2 domain it was 18.2 nM; at TYK2-JH2 domain, 0.79 nM. At TYK2-JH2 domain, the JAK1/TYK2 selectivity worked out at 22.99.
For the compound `[2H]C([2H])([2H])NC(=O)c1cnc(Nc2ccc(N3CCOCC3)cn2)cc1Nc1nn(C)c2ccc([C@H](OC)C(F)(F)F)c(OC)c12` [Example 173, (S)-4-((4-methoxy-1-methyl-5-(2,2,2-trifluoro-1-methoxyethyl)-1H-indazol-3-yl)amino)-N-(methyl-d3)-6-((5-morpholinopyridin-2-yl)amino)nicotinamide], the IC50 in assay [1] was determined as 0.401 nM; at JAK1-JH2 domain it was 2.39 nM; on TYK2-JH2 domain, 0.161 nM. On TYK2-JH2 domain, the JAK1/TYK2 selectivity is 14.83.
The like results for `CCC(F)(F)c1cnc(NC(=O)C2CC2)cc1Nc1nccc(-c2cnn(C)n2)c1OC` [Example 174, N-(5-(1,1-difluoropropyl)-4-((3-methoxy-4-(2-methyl-2H-1,2,3-triazol-4-yl)pyridin-2-yl)amino)pyridin-2-yl)cyclopropanecarboxamide] were, in that order, 15.4 nM, 61.4 nM, 0.86 nM and 71.45.
Consider `COC(=O)c1cnc(Nc2ccc(Cl)cn2)cc1Nc1nn(C)c2ccc([C@H](OC)C(F)(F)F)c(OC)c12` [Example 175, Methyl (S)-6-((5-chloropyridin-2-yl)amino)-4-((4-methoxy-1-methyl-5-(2,2,2-trifluoro-1-methoxyethyl)-1H-indazol-3-yl)amino)nicotinate], for which the IC50 in assay [1] was 18.1 nM; at JAK1-JH2 domain it was greater than 298 nM; on TYK2-JH2 domain it was 0.384 nM. Further, the JAK1/TYK2 selectivity on TYK2-JH2 domain is reported as greater than 777.34.
With `COC1CN(c2ccc3nc(Nc4cc(NC(=O)C5CC5)ncc4C(C)(F)F)nn3c2)C1` [Example 176, N-(5-(1,1-difluoroethyl)-4-((6-(3-methoxyazetidin-1-yl)-[1,2,4]triazolo[1,5-a]pyridin-2-yl)amino)pyridin-2-yl)cyclopropanecarboxamide], the IC50 in assay [1] stood at 13.3 nM; at JAK1-JH2 domain it was 17.1 nM; on TYK2-JH2 domain, 0.768 nM. Besides, on TYK2-JH2 domain, the JAK1/TYK2 selectivity came out at 22.21.
As to `COc1c(-c2cnn(C)n2)ccnc1Nc1cc(NC(=O)C2CC2)ncc1C(C)(F)F` [Example 177, N-(5-(1,1-Difluoroethyl)-4-((3-methoxy-4-(2-methyl-2H-1,2,3-triazol-4-yl)pyridin-2-yl)amino)pyridin-2-yl)cyclopropanecarboxamide], the IC50 was 15.2 nM in assay [1], 6.37 nM at JAK1-JH2 domain and 0.749 nM at TYK2-JH2 domain. The JAK1/TYK2 selectivity on TYK2-JH2 domain came to 8.50.
On to `COC(=O)c1cnc(Nc2ccn(C)n2)cc1Nc1nn(C)c2ccc([C@H](OC)C(F)(F)F)c(OC)c12` [Example 180, Methyl (S)-4-((4-methoxy-1-methyl-5-(2,2,2-trifluoro-1-methoxyethyl)-1H-indazol-3-yl)amino)-6-((1-methyl-1H-pyrazol-3-yl)amino)nicotinate], for which the IC50 was 14.3 nM in assay [1], greater than 298 nM at JAK1-JH2 domain and 0.176 nM at TYK2-JH2 domain. Also, on TYK2-JH2 domain, the JAK1/TYK2 selectivity is greater than 1696.
Consider `COCCn1ccc(Nc2cc(Nc3nn(C)c4ccc([C@H](OC)C(F)(F)F)c(OC)c34)c(C(=O)OC)cn2)n1` [Example 181, Methyl (S)-4-((4-methoxy-1-methyl-5-(2,2,2-trifluoro-1-methoxyethyl)-1H-indazol-3-yl)amino)-6-((1-(2-methoxyethyl)-1H-pyrazol-3-yl)amino)nicotinate], for which the IC50 in assay [1] is 35.2 nM; on JAK1-JH2 domain, greater than 298 nM; on TYK2-JH2 domain, 0.309 nM. Further, the JAK1/TYK2 selectivity at TYK2-JH2 domain was greater than 966.
In the case of `[2H]C([2H])([2H])NC(=O)c1cnc(Nc2cc(CN3CCOCC3)n(C)n2)cc1Nc1nn(C)c2ccc([C@H](OC)C(F)(F)F)c(OC)c12` [Example 182, (S)-4-((4-Methoxy-1-methyl-5-(2,2,2-trifluoro-1-methoxyethyl)-1H-indazol-3-yl)amino)-N-(methyl-d3)-6-((1-methyl-5-(morpholinomethyl)-1H-pyrazol-3-yl)amino)nicotinamide], the IC50 was found to be 0.817 nM in assay [1], 1.97 nM at JAK1-JH2 domain and 0.141 nM on TYK2-JH2 domain. Further, the JAK1/TYK2 selectivity at TYK2-JH2 domain is 13.95.
The like results for `CCC(F)(F)c1cnc(NC(=O)C2CC2)cc1Nc1cccc(-c2cnn(C)n2)c1OC` [Example 184, N-(5-(1,1-Difluoropropyl)-4-((2-methoxy-3-(2-methyl-2H-1,2,3-triazol-4-yl)phenyl)amino)pyridin-2-yl)cyclopropanecarboxamide] were, in that order, 14.9 nM, 6.85 nM, 0.216 nM and 31.71.
On to `CNC(=O)c1nnc(NC(=O)C2CC2)cc1Nc1nc2ccccn2n1` [Example 185, 4-([1,2,4]Triazolo[1,5-a]pyridin-2-ylamino)-6-(cyclopropanecarboxamido)-N-methylpyridazine-3-carboxamide], for which the IC50 stood at 89.1 nM in assay [1], 9.21 nM on JAK1-JH2 domain and 0.565 nM on TYK2-JH2 domain. In addition, the JAK1/TYK2 selectivity on TYK2-JH2 domain worked out at 16.30.
For the compound `CNC(=O)c1cnc(NC(=O)C2CC2)cc1Nc1nn(C)c2ccc([C@H](O)C(F)(F)F)c(OC)c12` [Example 189, (S)-6-(Cyclopropanecarboxamido)-4-((4-methoxy-1-methyl-5-(2,2,2-trifluoro-1-hydroxyethyl)-1H-indazol-3-yl)amino)-N-methylnicotinamide], the IC50 was found to be 0.119 nM in assay [1], 3.5 nM at JAK1-JH2 domain and 0.054 nM on TYK2-JH2 domain. Moreover, the JAK1/TYK2 selectivity at TYK2-JH2 domain is recorded as 64.91.
As for `CNC(=O)c1cnc(NC(=O)C2CC2)cc1Nc1nn(C)c2ccc([C@H](OC)C(F)(F)F)c(OC)c12` [Example 190, (S)-6-(Cyclopropanecarboxamido)-4-((4-methoxy-1-methyl-5-(2,2,2-trifluoro-1-methoxyethyl)-1H-indazol-3-yl)amino)-N-methylnicotinamide], the IC50 was found to be 0.196 nM in assay [1], 1.95 nM at JAK1-JH2 domain and 0.076 nM at TYK2-JH2 domain. Moreover, at TYK2-JH2 domain, the JAK1/TYK2 selectivity is reported as 25.71.
Regarding `[2H]C([2H])([2H])NC(=O)c1cnc(NC(=O)C2CC2)cc1Nc1nn(C)c2ccc(C(C)C(F)(F)F)c(OC)c12` (stereo not drawn) [Example 191, 6-(Cyclopropanecarboxamido)-4-((4-methoxy-1-methyl-5-(1,1,1-trifluoropropan-2-yl)-1H-indazol-3-yl)amino)-N-(methyl-d3)nicotinamide], the IC50 in assay [1] was 2.51 nM; on JAK1-JH2 domain, 5.96 nM; at TYK2-JH2 domain, 0.132 nM. For the same compound, at TYK2-JH2 domain, the JAK1/TYK2 selectivity is recorded as 45.15.
In the case of `[2H]C([2H])([2H])NC(=O)c1cnc(NC(=O)[C@@H]2C[C@@H]2F)cc1Nc1nn(C)c2ccc([C@H](O)C(F)(F)F)c(OC)c12` [Example 194, 6-((1S,2S)-2-Fluorocyclopropane-1-carboxamido)-4-((4-methoxy-1-methyl-5-((S)-2,2,2-trifluoro-1-hydroxyethyl)-1H-indazol-3-yl)amino)-N-(methyl-d3)nicotinamide], the IC50 in assay [1] was found to be 0.241 nM; on JAK1-JH2 domain it was 3.9 nM; on TYK2-JH2 domain, 0.08 nM. In addition, on TYK2-JH2 domain, the JAK1/TYK2 selectivity is reported as 48.8.
